Tested on: 857933-349-R-J2-PDC complex spheroids, viability
Assay: Anticancer human tumor 857933-349-R-J2-PDC patient-derived colon adenocarcinoma cell line growth inhibition [GQUAD]
Details: for IC50: curve of first compound; for viability, T/C: stronger effect = lower value
Method in brief: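 Multi-cell-type spheroids of tumor cells with HUVEC and mesenchymal stem cells, treated with drug combinations. Concentrations descend in half-log steps from near clinical Cmax, or from 10 microM where Cmax is unknown; viability read-out.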

[1] = second compound 0.0316 µM, first compound 0.0316 µM
[2] = second compound 0.0316 µM, first compound 0.1 µM
[3] = second compound 0.0316 µM, first compound 0.316 µM
[4] = second compound 0.0316 µM, first compound 1 µM
[5] = second compound 0.0316 µM, first compound 3.16 µM
[6] = second compound 0.0316 µM, first compound 10 µM
[7] = second compound 0.1 µM, first compound 0.0316 µM
[8] = second compound 0.1 µM, first compound 0.1 µM
[9] = second compound 0.1 µM, first compound 0.316 µM
[10] = second compound 0.1 µM, first compound 1 µM
[11] = second compound 0.1 µM, first compound 3.16 µM
[12] = second compound 0.1 µM, first compound 10 µM
[13] = second compound 0.316 µM, first compound 0.0316 µM
[14] = second compound 0.316 µM, first compound 0.1 µM
[15] = second compound 0.316 µM, first compound 0.316 µM
[16] = second compound 0.316 µM, first compound 1 µM
[17] = second compound 0.316 µM, first compound 3.16 µM
[18] = second compound 0.316 µM, first compound 10 µM
[19] = second compound 1 µM, first compound 0.0316 µM
[20] = second compound 1 µM, first compound 0.1 µM
[21] = second compound 1 µM, first compound 0.316 µM
[22] = second compound 1 µM, first compound 1 µM
[23] = second compound 1 µM, first compound 3.16 µM
[24] = second compound 1 µM, first compound 10 µM
[25] = second compound 3.16 µM, first compound 0.0316 µM
[26] = second compound 3.16 µM, first compound 0.1 µM
[27] = second compound 3.16 µM, first compound 0.316 µM
[28] = second compound 3.16 µM, first compound 1 µM
[29] = second compound 3.16 µM, first compound 3.16 µM
[30] = second compound 3.16 µM, first compound 10 µM
[31] = second compound 10 µM, first compound 0.0316 µM
[32] = second compound 10 µM, first compound 0.1 µM
[33] = second compound 10 µM, first compound 0.316 µM
[34] = second compound 10 µM, first compound 1 µM
[35] = second compound 10 µM, first compound 3.16 µM
[36] = second compound 10 µM, first compound 10 µM
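Also: spheroids exposed to compounds for one week before readout.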
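For viability, T/C in this document: percent viability relative to vehicle DMSO wells taken as 100%.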

Structure (SMILES): CC(C)(O)C1CCC(Nc2ccc3ncc(-c4cccc(C(F)(F)F)c4)n3n2)CC1 (stereo not drawn) + Cc1[nH]c2ccc(F)cc2c1-c1nc2c3cccnc3c3ncccc3c2[nH]1
- IC50 (second compound 0.0316 µM): 761 nM
- IC50 (second compound 0.1 µM): 725 nM
- IC50 (second compound 0.316 µM): 673 nM
- IC50 (second compound 1 µM): 682 nM
- IC50 (second compound 3.16 µM): 657 nM
- IC50 (second compound 10 µM): 707 nM
- viability, T/C [1]: 107%
- viability, T/C [2]: 95.8%
- viability, T/C [3]: 96.4%
- viability, T/C [4]: 35.7%
- viability, T/C [5]: 2.35%
- viability, T/C [6]: 2.26%
- viability, T/C [7]: 104%
- viability, T/C [8]: 97.8%
- viability, T/C [9]: 93%
- viability, T/C [10]: 33.5%
- viability, T/C [11]: 2.03%
- viability, T/C [12]: 1.93%
- viability, T/C [13]: 104%
- viability, T/C [14]: 92%
- viability, T/C [15]: 87.3%
- viability, T/C [16]: 30.8%
- viability, T/C [17]: 2.68%
- viability, T/C [18]: 2.19%
- viability, T/C [19]: 93.4%
- viability, T/C [20]: 87.3%
- viability, T/C [21]: 87.5%
- viability, T/C [22]: 31.4%
- viability, T/C [23]: 2.43%
- viability, T/C [24]: 1.82%
- viability, T/C [25]: 87.3%
- viability, T/C [26]: 85.1%
- viability, T/C [27]: 79.5%
- viability, T/C [28]: 33.1%
- viability, T/C [29]: 3.45%
- viability, T/C [30]: 2.02%
- viability, T/C [31]: 86.6%
- viability, T/C [32]: 84.6%
- viability, T/C [33]: 81.7%
- viability, T/C [34]: 36.4%
- viability, T/C [35]: 3.99%
- viability, T/C [36]: 2.51%

Structure (SMILES): CCc1c2c(nc3ccc(O)cc13)-c1cc3c(c(=O)n1C2)COC(=O)[C@]3(O)CC + Cc1cnc(CNC(=O)c2c(=O)c3ccc(N4CCCN(C)CC4)nc3n3c2sc2ccccc23)cn1
- IC50 (second compound 0.0316 µM): 3.53 nM
- IC50 (second compound 0.1 µM): 3.89 nM
- IC50 (second compound 0.316 µM): < 0.999 nM
- IC50 (second compound 1 µM): < 0.999 nM
- IC50 (second compound 3.16 µM): < 0.999 nM
- IC50 (second compound 10 µM): < 0.999 nM
- viability, T/C (second compound 0.0316 µM, first compound 0.000999 µM): 89%
- viability, T/C (second compound 0.0316 µM, first compound 0.00316 µM): 43.6%
- viability, T/C (second compound 0.0316 µM, first compound 0.00999 µM): 41.9%
- viability, T/C [1]: 16.5%
- viability, T/C (second compound 0.0316 µM, first compound 0.0999 µM): 10.4%
- viability, T/C [3]: 8.23%
- viability, T/C (second compound 0.1 µM, first compound 0.000999 µM): 55.4%
- viability, T/C (second compound 0.1 µM, first compound 0.00316 µM): 55.9%
- viability, T/C (second compound 0.1 µM, first compound 0.00999 µM): 31.9%
- viability, T/C [7]: 11%
- viability, T/C (second compound 0.1 µM, first compound 0.0999 µM): 6.26%
- viability, T/C [9]: 3.59%
- viability, T/C (second compound 0.316 µM, first compound 0.000999 µM): 25.9%
- viability, T/C (second compound 0.316 µM, first compound 0.00316 µM): 17.3%
- viability, T/C (second compound 0.316 µM, first compound 0.00999 µM): 5.28%
- viability, T/C [13]: 2.97%
- viability, T/C (second compound 0.316 µM, first compound 0.0999 µM): 2.84%
- viability, T/C [15]: 0.55%
- viability, T/C (second compound 1 µM, first compound 0.000999 µM): 3.82%
- viability, T/C (second compound 1 µM, first compound 0.00316 µM): 3.55%
- viability, T/C (second compound 1 µM, first compound 0.00999 µM): 2.71%
- viability, T/C [19]: 1.95%
- viability, T/C (second compound 1 µM, first compound 0.0999 µM): 1.2%
- viability, T/C [21]: 0.14%
- viability, T/C (second compound 3.16 µM, first compound 0.000999 µM): 2.34%
- viability, T/C (second compound 3.16 µM, first compound 0.00316 µM): 1.9%
- viability, T/C (second compound 3.16 µM, first compound 0.00999 µM): 1.86%
- viability, T/C [25]: 0.77%
- viability, T/C (second compound 3.16 µM, first compound 0.0999 µM): 0.1%
- viability, T/C [27]: 0.13%
- viability, T/C (second compound 10 µM, first compound 0.000999 µM): 1.54%
- viability, T/C (second compound 10 µM, first compound 0.00316 µM): 0.97%
- viability, T/C (second compound 10 µM, first compound 0.00999 µM): 0.21%
- viability, T/C [31]: 0.17%
- viability, T/C (second compound 10 µM, first compound 0.0999 µM): 0.16%
- viability, T/C [33]: 0.19%

Structure (SMILES): CC(C)n1c(=O)n(C)c2cnc3cc(F)c(-c4ccc(OCCCN5CCCCC5)nc4)cc3c21 + Cc1cnc(CNC(=O)c2c(=O)c3ccc(N4CCCN(C)CC4)nc3n3c2sc2ccccc23)cn1
- IC50 (second compound 0.0316 µM): > 10000 nM
- IC50 (second compound 0.1 µM): 3220 nM
- IC50 (second compound 0.316 µM): < 31.6 nM
- IC50 (second compound 1 µM): < 31.6 nM
- IC50 (second compound 3.16 µM): < 31.6 nM
- IC50 (second compound 10 µM): < 31.6 nM
- viability, T/C [1]: 76.9%
- viability, T/C [2]: 60.9%
- viability, T/C [3]: 73.1%
- viability, T/C [4]: 69.2%
- viability, T/C [5]: 73.3%
- viability, T/C [6]: 54.3%
- viability, T/C [7]: 43.9%
- viability, T/C [8]: 45.5%
- viability, T/C [9]: 52.8%
- viability, T/C [10]: 52%
- viability, T/C [11]: 57.7%
- viability, T/C [12]: 31.4%
- viability, T/C [13]: 32.7%
- viability, T/C [14]: 39.1%
- viability, T/C [15]: 33%
- viability, T/C [16]: 35.2%
- viability, T/C [17]: 39.1%
- viability, T/C [18]: 17.5%
- viability, T/C [19]: 9.65%
- viability, T/C [20]: 10.9%
- viability, T/C [21]: 8.38%
- viability, T/C [22]: 8.38%
- viability, T/C [23]: 11%
- viability, T/C [24]: 6.11%
- viability, T/C [25]: 3.19%
- viability, T/C [26]: 3.85%
- viability, T/C [27]: 4.08%
- viability, T/C [28]: 3.05%
- viability, T/C [29]: 4.81%
- viability, T/C [30]: 1.31%
- viability, T/C [31]: 3.24%
- viability, T/C [32]: 2.19%
- viability, T/C [33]: 2.95%
- viability, T/C [34]: 1.88%
- viability, T/C [35]: 2.22%
- viability, T/C [36]: 0.46%

Structure (SMILES): COc1cc(C2c3cc4c(cc3C(OC3OC5COC(C)OC5C(O)C3O)C3COC(=O)C23)OCO4)cc(OC)c1O (stereo not drawn) + Cc1[nH]c2ccc(F)cc2c1-c1nc2c3cccnc3c3ncccc3c2[nH]1
- IC50 (second compound 0.0316 µM): 935 nM
- IC50 (second compound 0.1 µM): 962 nM
- IC50 (second compound 0.316 µM): 1030 nM
- IC50 (second compound 1 µM): 1410 nM
- IC50 (second compound 3.16 µM): 964 nM
- IC50 (second compound 10 µM): 980 nM
- viability, T/C [1]: 84.8%
- viability, T/C [2]: 62.7%
- viability, T/C [3]: 58%
- viability, T/C [4]: 53.8%
- viability, T/C [5]: 42.1%
- viability, T/C [6]: 24.6%
- viability, T/C [7]: 86.5%
- viability, T/C [8]: 73.6%
- viability, T/C [9]: 50.9%
- viability, T/C [10]: 59.4%
- viability, T/C [11]: 38.8%
- viability, T/C [12]: 24.9%
- viability, T/C [13]: 88.9%
- viability, T/C [14]: 69.8%
- viability, T/C [15]: 55.9%
- viability, T/C [16]: 59%
- viability, T/C [17]: 38.9%
- viability, T/C [18]: 25.4%
- viability, T/C [19]: 81.4%
- viability, T/C [20]: 71.8%
- viability, T/C [21]: 50.7%
- viability, T/C [22]: 63.1%
- viability, T/C [23]: 44.6%
- viability, T/C [24]: 23.5%
- viability, T/C [25]: 94.9%
- viability, T/C [26]: 65.3%
- viability, T/C [27]: 47.6%
- viability, T/C [28]: 56.2%
- viability, T/C [29]: 45.4%
- viability, T/C [30]: 24%
- viability, T/C [31]: 90.7%
- viability, T/C [32]: 69.5%
- viability, T/C [33]: 49.8%
- viability, T/C [34]: 56.5%
- viability, T/C [35]: 50.7%
- viability, T/C [36]: 27.7%
